Values quoted from earlier work as cited in patent US6114314A (priority 1994, dated 2000).

How the values were obtained:
macrophages = conditions: tissue culture
experiment neoplasm = conditions: with Interleukin 2
[1] = in cross-linked hyaluronic acid gel
rabbit eye = conditions: in vivo

COc1ccc2c(c1)c(CC(=O)O)c(C)n2C(=O)c1ccc(Cl)cc1 [indomethacin]
malfunction of macrophages (block due to excessive prostaglandin) (macrophages): can be altered | cure of experiment neoplasm (experiment neoplasm): could effect a cure

COc1ccc2cc([C@H](C)C(=O)O)ccc2c1 [naproxen]
malfunction of macrophages (block due to excessive prostaglandin) (macrophages): can be altered

heparin
antithrombogenic activity [1]: retained its antithrombogenic activity

sodium hyaluronate [sodium hyaluronate (LifeCore)]
Biological Safety Testing, Rabbit Ocular Toxicity Test (rabbit eye): Passes

CC(=O)Oc1ccccc1C(=O)O [ASA, acetylsalicylic acid]
malfunction of macrophages (block due to excessive prostaglandin) (macrophages): can be altered
